Literature values as cited in US20240016816A1, “COMBINATION THERAPY” (priority 2017, published 2024).

Columns and labels:
eyelashes = settings: patients using ophthalmic prostaglandins
hair loss = settings: clinical trials

## CCNC(=O)CCC/C=C\C[C@@H]1[C@@H](/C=C/[C@@H](O)CCc2ccccc2)[C@H](O)C[C@@H]1O [Bimatoprost, bimatoprost]
eyelashes
  effect on eyelashes: significantly increase eyelash length

## CC(C)(C)NC(=O)[C@H]1CC[C@H]2[C@@H]3CC[C@H]4NC(=O)C=C[C@]4(C)[C@H]3CC[C@]12C [finasteride]
Hair loss
  efficacy, monotherapy comparison minoxidil vs finasteride: the more efficacious treatment option

## CC(C)OC(=O)CCC/C=C\C[C@@H]1[C@@H](CC[C@@H](O)CCc2ccccc2)[C@H](O)C[C@@H]1O [latanoprost]
eyelashes
  effect on eyelashes: increase in diameter, density and length of eyelashes

## CC(C)OC(=O)CCC/C=C\C[C@@H]1[C@@H](/C=C/[C@@H](O)COc2cccc(C(F)(F)F)c2)[C@H](O)C[C@@H]1O [travoprost]
eyelashes
  effect on eyelashes: increase in diameter, density and length of eyelashes
